Data set [1] can be described thus: Rat PK of amino acid prodrug after IV/PO administration. Format: in vivo. The following applies: plasma, 10 mg/kg IV, prodrug itself, read-out: AUC0-∝.
The nature of data set [2]: Animal model of infection of Compound 4: RLI, 2Log Red. Format: in vivo, rats. Conditions: RLI (rat lung infection model), ED50.
Data set [3] is described as follows: Animal model of infection of Compound 4: MPT, ED50. Conditions: Mus musculus, MPT (mouse protection test model). Format: in vivo, mice.

These results are taken from patent US20130165641A1, “6,11-BRIDGED BIARYL MACROLIDES” (Enanta Pharmaceuticals, Inc., priority 2007, published 2013).

Regarding `CCC(=O)/N=C1\[C@H](C)C[C@@]2(C)OC/C(=N/OCc3ccc(-c4nc(NC(=O)[C@@H](N)CC(C)C)cs4)cn3)CO[C@H]([C@H]1C)[C@](C)(O)[C@@H](CC)OC(=O)[C@@](C)(F)C(=O)[C@H](C)[C@H]2O[C@@H]1O[C@H](C)C[C@H](N(C)C)[C@H]1O` [Compounds 6], the AUC in data set [1] was found to be 210 ng·h/mL.
One may read the ED50 as the dose that gives a 50% effect, or the effect in half of the subjects. Higher therefore signals a need for a large dose. In the case of `CC[C@H]1OC(=O)[C@H](C)C(=O)[C@H](C)[C@@H](O[C@@H]2O[C@H](C)C[C@H](N(C)C)[C@H]2O)[C@](C)(OC)C[C@@H](C)C(=O)[C@H](C)[C@H]2N(CCCCn3cnc(-c4cccnc4)c3)C(=O)O[C@]12C` [Telithromycin, telithromycin], the “2Log Red” value is reported as 49 mg/kg in data set [2] (H. influenzae 1435), 78 mg/kg in data set [2] (H. influenzae 3643) and 56 mg/kg in data set [2] (H. influenzae S1280). The results for the ED50 in data set [3] (S. aureus Smith) and in data set [3] (S. pneumoniae 7701) were 11 mg/kg and 10 mg/kg, respectively.
